Patent publication US20200339548A1, “PYRIMIDINE DERIVATIVES AND THEIR USE FOR THE TREATMENT OF CANCER” (Adorx Therapeutics Limited, priority 2017, published 2020)

Key:
Adenosine A2b receptor = target: T1, Adenosine A2b receptor (Homo sapiens, UniProt P29275); assay: Adenosine receptor TR-FRET binding assay, A2b; conditions: Table 9, further testing; displacement of 30 nM CA200645, CHO cell membranes
T1 construct: expressed in transfected cells; host or cells: CHO cell membranes
T1 sequence (P29275 1-332): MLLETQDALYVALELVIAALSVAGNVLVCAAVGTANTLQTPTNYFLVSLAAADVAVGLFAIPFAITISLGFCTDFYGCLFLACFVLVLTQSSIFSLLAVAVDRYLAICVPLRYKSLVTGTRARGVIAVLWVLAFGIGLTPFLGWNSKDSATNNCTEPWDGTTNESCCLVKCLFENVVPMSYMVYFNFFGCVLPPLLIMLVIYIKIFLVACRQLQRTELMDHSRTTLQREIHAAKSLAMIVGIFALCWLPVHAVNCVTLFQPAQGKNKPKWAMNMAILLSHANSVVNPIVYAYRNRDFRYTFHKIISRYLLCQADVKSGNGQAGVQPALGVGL
Procedure: (§1) All FRET binding experiments were conducted at room temperature in white 384-well plates, in assay binding buffer containing 1× LabMed (Cisbio, France), 100 μg/mL saponin, 1% DMSO and 0.02% pluronic acid. Binding of the fluorescently labelled Adenosine receptor antagonist XAC (CA200645, FRET acceptor) to terbium-labelled A1, A2a, A2b and A3 adenosine receptors (FRET donors) was detected by time-resolved FRET due to the close proximity of the donor and acceptor in a binding event. To investigate the ability of unlabelled test compounds to bind to Adenosine A1, A2a, A2b and A3 receptors, dose response curves were constructed that determined the ability of a range of concentrations to inhibit the binding of 30 nM CA200645 to the A2b receptor and 100 nM CA200645 to the A1, A2a, and A3 receptor.
(§2) Serial dilution (1:3 dilutions) of test compounds in neat DMSO and transfer of a 400 nL sample of test compound into the assay plate was carried out using the Mosquito (TTP Labtech, UK). The compound samples were incubated for 2 hours at room temperature with a fixed concentration of CA200645 defined for each receptor (see above) and CHO cell membranes containing the human Adenosine A1 (0.5 μg/well), A2a (0.3 μg/well), A2b (1 μg/well) or A3 (1 μg/well) receptor in 40 μL of assay buffer. Total and non-specific binding of CA200645 was determined in the absence and presence of 10 μM XAC, respectively.
(§3) Following 2 hours incubation, the level of CA200645 binding was detected on a Pherastar FSX (BMG Labtech, Germany) using standard TR-FRET settings. The terbium donor was excited with three laser flashes at a wavelength of 337 nm, and donor and acceptor emission was detected at 620 nm and 665 nm wavelengths, respectively. FRET ratios were obtained by multiplying the acceptor/donor ratio value by 10,000. Specific binding was determined by subtracting the non-specific binding FRET ratio from the total binding FRET ratio. Compound IC50 curves were analysed using GraphPad Prism 7.0 (GraphPad, USA) and Ki affinity values were determined from the obtained […] values using the method of Cheng and Prusoff.

Adenosine A2a receptor = target: T2, Adenosine A2a receptor (Homo sapiens, UniProt P29274); assay: Adenosine receptor TR-FRET binding assay, A2a; conditions: displacement of 100 nM CA200645, CHO cell membranes
T2 construct: expressed in transfected cells; host or cells: CHO cell membranes
T2 sequence (P29274 whole entry): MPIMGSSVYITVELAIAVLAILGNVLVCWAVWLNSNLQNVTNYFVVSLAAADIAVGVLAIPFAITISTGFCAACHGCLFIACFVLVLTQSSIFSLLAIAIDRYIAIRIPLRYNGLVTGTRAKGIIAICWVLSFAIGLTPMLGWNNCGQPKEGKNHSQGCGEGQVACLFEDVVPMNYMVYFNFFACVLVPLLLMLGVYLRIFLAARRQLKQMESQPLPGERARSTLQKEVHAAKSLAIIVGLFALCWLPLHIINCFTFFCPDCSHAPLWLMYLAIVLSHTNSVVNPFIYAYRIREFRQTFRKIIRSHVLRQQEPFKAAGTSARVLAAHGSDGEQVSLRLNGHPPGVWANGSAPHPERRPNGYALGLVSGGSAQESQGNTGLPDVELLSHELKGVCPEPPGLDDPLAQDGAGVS
Procedure: as §1, §2, §3

Adenosine A1 receptor = target: T3, Adenosine A1 receptor (Homo sapiens, UniProt P30542); assay: Adenosine receptor TR-FRET binding assay, A1; conditions: Table 9, further testing; displacement of 100 nM CA200645, CHO cell membranes
T3 construct: expressed in transfected cells; host or cells: CHO cell membranes
T3 sequence (P30542 1-326): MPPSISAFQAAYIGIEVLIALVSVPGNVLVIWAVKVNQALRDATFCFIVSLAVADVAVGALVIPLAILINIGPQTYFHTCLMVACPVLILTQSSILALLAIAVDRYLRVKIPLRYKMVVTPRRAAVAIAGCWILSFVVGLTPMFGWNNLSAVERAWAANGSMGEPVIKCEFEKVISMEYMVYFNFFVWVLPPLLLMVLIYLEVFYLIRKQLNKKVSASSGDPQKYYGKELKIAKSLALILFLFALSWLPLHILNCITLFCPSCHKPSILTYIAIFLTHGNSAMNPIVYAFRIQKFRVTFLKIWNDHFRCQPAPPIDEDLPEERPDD
Procedure: as §1, §2, §3

SMILES	Ki (Adenosine A2b receptor) [nM]	Ki (Adenosine A2a receptor; Table 8, Cheng and Prusoff) [nM]	Ki (Adenosine A2a receptor; Table 9, further testing) [nM]	Ki (Adenosine A1 receptor) [nM]
Nc1nc(-c2cccc(F)c2)ncc1C(=O)NCc1ccccc1 [Example 4, 4-Amino-N-benzyl-2-(3-fluorophenyl)pyrimidine-5-carboxamide]	1210	74	75	–
Nc1nc(-c2cccc(F)c2)ncc1C(=O)NCCc1ccccc1 [Example 4.1, 4-Amino-2-(3-fluorophenyl)-N-(2-phenylethyl)pyrimidine-5-carboxamide]	1730	141	142	–
Nc1nc(-c2cccc(F)c2)ncc1C(=O)Nc1ccccc1 [Example 4.2, 4-Amino-2-(3-fluorophenyl)-N-phenyl-pyrimidine-5-carboxamide]	8060	112	112	–
C[C@@H](NC(=O)c1cnc(-c2cccc(F)c2)nc1N)c1ccccc1 [Example 5, 4-Amino-2-(3-fluorophenyl)-N-[(1R)-1-phenylethyl]pyrimidine-5-carboxamide]	–	329	329	–
Nc1nc(-c2cccc(F)c2)ncc1C(=O)NCc1ccccc1F [Example 5.1, 4-Amino-2-(3-fluorophenyl)-N-[(2-fluorophenyl)methyl]pyrimidine-5-carboxamide]	172	90	90	–
Nc1nc(-c2cccc(F)c2)ncc1C(=O)NCc1c(F)cccc1F [Example 5.4, 4-Amino-N-[(2,6-difluorophenyl)methyl]-2-(3-fluorophenyl)pyrimidine-5-carboxamide]	138	50	50	–
Nc1nc(-c2cccc(F)c2)ncc1C(=O)NCc1ncccn1 [Example 5.5, 4-Amino-2-(3-fluorophenyl)-N-(pyrimidin-2-ylmethyl)pyrimidine-5-carboxamide]	–	278	278	–
Nc1nc(-c2cccc(F)c2)ncc1C(=O)NCc1ncccc1C(F)(F)F [Example 5.6, 4-Amino-2-(3-fluorophenyl)-N-[[3-(trifluoromethyl)-2-pyridyl]methyl]pyrimidine-5-carboxamide]	622	29	29	–
Nc1nc(-c2cccc(F)c2)ncc1C(=O)NCCc1ccc(O)cc1 [Example 5.7, 4-Amino-2-(3-fluorophenyl)-N-[2-(4-hydroxyphenyl)ethyl]pyrimidine-5-carboxamide]	3260	505	505	–
COc1ccc(CNC(=O)c2cnc(-c3ccco3)nc2N)cc1 [Example 5.11, 4-Amino-2-(2-furyl)-N-[(4-methoxyphenyl)methyl]pyrimidine-5-carboxamide]	–	495	495	–
Nc1nc(-c2ccco2)ncc1C(=O)NCc1ccc(Cl)cc1Cl [Example 5.19, 4-Amino-N-[(2,4-dichlorophenyl)methyl]-2-(2-furyl)pyrimidine-5-carboxamide]	–	15	15	–
CN(Cc1ccccc1)C(=O)c1cnc(-c2ccco2)nc1N [Example 5.22]	–	871	871	4240
CC(C)n1ncnc1CNC(=O)c1cnc(-c2ccco2)nc1N [Example 5.27, 4-Amino-2-(2-furyl)-N-[(2-isopropyl-1,2,4-triazol-3-yl)methyl]pyrimidine-5-carboxamide]	–	17	17	2680
Nc1nc(-c2ccco2)ncc1C(=O)N[C@H]1CCc2ccc(F)cc21 [Example 5.42, 4-Amino-N-[(1S)-6-fluoroindan-1-yl]-2-(2-furyl)pyrimidine-5-carboxamide]	–	–	53	–
Nc1nc(-c2ccco2)ncc1C(=O)NCc1ncco1 [Example 5.45, 4-Amino-2-(2-furyl)-N-(oxazol-2-ylmethyl)pyrimidine-5-carboxamide]	–	–	123	–
Nc1nc(-c2ccco2)ncc1C(=O)NCc1ccc2cnccc2c1 [Example 5.47, 4-Amino-2-(2-furyl)-N-(6-isoquinolylmethyl) pyrimidine-5-carboxamide]	–	–	230	4770
Nc1nc(-c2ccco2)ncc1C(=O)NC1CCCc2cccnc21 (centres unmarked) [Example 5.49, 4-Amino-2-(2-furyl)-N-(5,6,7,8-tetrahydroquinolin-8-yl)pyrimidine-5-carboxamide]	–	–	159	–
Nc1nc(-c2ccco2)ncc1C(=O)NCc1ccccc1C(F)(F)F [Example 5.55, 4-Amino-2-(2-furyl)-N-[[2-(trifluoromethyl)phenyl]methyl]pyrimidine-5-carboxamide]	–	–	21	–
NC(=O)c1nnc(-c2cccc(F)c2)nc1N [Example 6, 5-Amino-3-(3-fluorophenyl)-1,2,4-triazine-6-carboxamide]	–	556	556	–
Cc1cccnc1CNC(=O)c1cnc(-c2ccccc2F)nc1N [Example 9, 4-Amino-2-(2-fluorophenyl)-N-[(3-methyl-2-pyridyl)methyl]pyrimidine-5-carboxamide]	–	312	312	–
Cc1ccc(CNC(=O)c2cnc(-c3ccco3)nc2N)cc1 [Example 11.1, 4-Amino-2-(2-furyl)-N-(p-tolylmethyl)pyrimidine-5-carboxamide]	–	31	31	2380
Cc1cccnc1CNC(=O)c1cnc(-n2cccn2)nc1N [Example 15, 4-Amino-N-[(3-methyl-2-pyridyl)methyl]-2-pyrazol-1-yl-pyrimidine-5-carboxamide]	–	265	265	–
Cc1cccnc1CNC(=O)c1cnc(-c2ncco2)nc1N [Example 16, 4-Amino-N-[(3-methyl-2-pyridyl)methyl]-2-oxazol-2-yl-pyrimidine-5-carboxamide]	–	34	34	5650
CC(=O)NCCNc1nc(-c2ccco2)nc(N)c1C(=O)NCc1ncccc1C [Example 22, 4-(2-Acetamidoethylamino)-6-amino-2-(2-furyl)-N-[(3-methyl-2-pyridyl)methyl]pyrimidine-5-carboxamide]	–	–	6.8	598
Cc1cccnc1CNC(=O)c1c(N)nc(-c2ccco2)nc1OCCC1CCCCN1 (centres unmarked) [Example 23, 4-Amino-2-(2-furyl)-N-[(3-methyl-2-pyridyl)methyl]-6-[2-(2-piperidyl)ethoxy]pyrimidine-5-carboxamide]	–	–	864	8530
CC(C)NC(=O)c1c(N)nc(-c2cccc(C#N)c2)nc1OCCF [Example 24, 4-Amino-2-(3-cyanophenyl)-6-(2-fluoroethoxy)-N-isopropyl-pyrimidine-5-carboxamide]	–	–	3.3	–
CCCNC(=O)c1c(N)nc(-c2cccc(C#N)c2)nc1OCCF [Example 24.1, 4-Amino-2-(3-cyanophenyl)-6-(2-fluoroethoxy)-N-propyl-pyrimidine-5-carboxamide]	–	–	5.7	–
CC(C)CNC(=O)c1c(N)nc(-c2cccc(C#N)c2)nc1OCCF [Example 24.2, 4-Amino-2-(3-cyanophenyl)-6-(2-fluoroethoxy)-N-isobutyl-pyrimidine-5-carboxamide]	–	–	2	–
CCCCNC(=O)c1c(N)nc(-c2cccc(C#N)c2)nc1OCCF [Example 24.3, 4-Amino-N-butyl-2-(3-cyanophenyl)-6-(2-fluoroethoxy)pyrimidine-5-carboxamide]	–	–	0.9	–
CN(C)CCNC(=O)c1c(N)nc(-c2cccc(C#N)c2)nc1OCCF [Example 24.5, 4-Amino-2-(3-cyanophenyl)-N-[2-(dimethylamino)ethyl]-6-(2-fluoroethoxy)pyrimidine-5-carboxamide]	–	–	29	–
